In ChEMBL document CHEMBL4308841, “Synthesis, in vitro antiproliferative activity, and kinase inhibitory effects of pyrazole-containing diarylureas and diarylamides” (Eur J Med Chem, 2018):

Experiments:
HL-60(TB) = assay: Growth inhibition of human HL-60(TB) cells assessed as cell growth at 10 uM incubated for 48 hrs by sulforhodamine B assay relative to control; assay type: functional; conditions: HL-60, 48 h, read-out: Activity
ACHN [1] = assay: Growth inhibition of human ACHN cells incubated for 48 hrs by sulforhodamine B assay; assay type: functional, cell-based
SF-295 = assay: Growth inhibition of human SF295 cells assessed as cell growth at 10 uM incubated for 48 hrs by sulforhodamine B assay relative to control; assay type: functional; conditions: SF-295, 48 h, read-out: Activity
SK-OV-3 = assay: Growth inhibition of human SKOV3 cells assessed as cell growth at 10 uM incubated for 48 hrs by sulforhodamine B assay relative to control; assay type: functional; conditions: SK-OV-3, 48 h, read-out: Activity
Hs-578T = assay: Growth inhibition of human Hs578T cells assessed as cell growth at 10 uM incubated for 48 hrs by sulforhodamine B assay relative to control; assay type: functional; conditions: read-out: Activity
NCI/ADR-RES = assay: Growth inhibition of human NCI/ADR-RES cells assessed as cell growth at 10 uM incubated for 48 hrs by sulforhodamine B assay relative to control; assay type: functional; conditions: read-out: Activity
SF-268 = assay: Growth inhibition of human SF268 cells assessed as cell growth at 10 uM incubated for 48 hrs by sulforhodamine B assay relative to control; assay type: functional; conditions: SF-268, 48 h, read-out: Activity
MDA-MB-468 [2] = assay: Growth inhibition of human MDA-MB-468 cells assessed as cell growth at 100 uM incubated for 48 hrs by sulforhodamine B assay relative to control; assay type: functional; conditions: MDA-MB-468, 48 h, read-out: Activity
HCT-15 = assay: Growth inhibition of human HCT15 cells assessed as cell growth at 10 uM incubated for 48 hrs by sulforhodamine B assay relative to control; assay type: functional; conditions: HCT-15, 48 h, read-out: Activity
MDA-MB-435 = assay: Growth inhibition of human MDA-MB-435 cells assessed as cell growth at 10 uM incubated for 48 hrs by sulforhodamine B assay relative to control; assay type: functional; conditions: MDA-MB-435, 48 h, read-out: Activity
LOX IMVI = assay: Growth inhibition of human LOXIMVI cells assessed as cell growth at 10 uM incubated for 48 hrs by sulforhodamine B assay relative to control; assay type: functional; conditions: read-out: Activity
ACHN [3] = assay: Growth inhibition of human ACHN cells assessed as cell growth at 100 uM incubated for 48 hrs by sulforhodamine B assay relative to control; assay type: functional; conditions: read-out: Activity
MDA-MB-468 [4] = assay: Growth inhibition of human MDA-MB-468 cells assessed as cell growth at 10 uM incubated for 48 hrs by sulforhodamine B assay relative to control; assay type: functional; conditions: MDA-MB-468, 48 h, read-out: Activity
OVCAR-8 = assay: Growth inhibition of human OVCAR8 cells assessed as cell growth at 10 uM incubated for 48 hrs by sulforhodamine B assay relative to control; assay type: functional; conditions: OVCAR-8, 48 h, read-out: Activity
M14 [5] = assay: Growth inhibition of human M14 cells assessed as cell growth at 10 uM incubated for 48 hrs by sulforhodamine B assay relative to control; assay type: functional; conditions: M14, 48 h, read-out: Activity
UACC-257 = assay: Growth inhibition of human UACC257 cells assessed as cell growth at 10 uM incubated for 48 hrs by sulforhodamine B assay relative to control; assay type: functional; conditions: UACC-257, 48 h, read-out: Activity
K562 = assay: Growth inhibition of human K562 cells assessed as cell growth at 10 uM incubated for 48 hrs by sulforhodamine B assay relative to control; assay type: functional; conditions: K562, 48 h, read-out: Activity
HOP-62 = assay: Growth inhibition of human HOP62 cells assessed as cell growth at 10 uM incubated for 48 hrs by sulforhodamine B assay relative to control; assay type: functional; conditions: HOP-62, 48 h, read-out: Activity
U-251 [6] = assay: Growth inhibition of human U251 cells incubated for 48 hrs by sulforhodamine B assay; assay type: functional, cell-based; conditions: U-251, 48 h
RPMI-8226 = assay: Growth inhibition of human RPMI8226 cells assessed as cell growth at 10 uM incubated for 48 hrs by sulforhodamine B assay relative to control; assay type: functional; conditions: RPMI-8226, 48 h, read-out: Activity
UACC-62 = assay: Growth inhibition of human UACC62 cells assessed as cell growth at 0.1 uM incubated for 48 hrs by sulforhodamine B assay relative to control; assay type: functional; conditions: UACC-62, 48 h, read-out: Activity
HCC 2998 [7] = assay: Growth inhibition of human HCC2998 cells assessed as cell growth at 10 uM incubated for 48 hrs by sulforhodamine B assay relative to control; assay type: functional; conditions: HCC 2998, 48 h, read-out: Activity
SNB-19 = assay: Growth inhibition of human SNB19 cells assessed as cell growth at 10 uM incubated for 48 hrs by sulforhodamine B assay relative to control; assay type: functional; conditions: SNB-19, 48 h, read-out: Activity
Malme-3M = assay: Growth inhibition of human MALME-3M cells assessed as cell growth at 10 uM incubated for 48 hrs by sulforhodamine B assay relative to control; assay type: functional; conditions: read-out: Activity
OVCAR-4 [8] = assay: Growth inhibition of human OVCAR4 cells assessed as cell growth at 10 uM incubated for 48 hrs by sulforhodamine B assay relative to control; assay type: functional; conditions: OVCAR-4, 48 h, read-out: Activity
UO-31 = assay: Growth inhibition of human UO31 cells assessed as cell growth at 0.01 uM incubated for 48 hrs by sulforhodamine B assay relative to control; assay type: functional; conditions: UO-31, 48 h, read-out: Activity
U-251 [9] = assay: Growth inhibition of human U251 cells assessed as cell growth at 1 uM incubated for 48 hrs by sulforhodamine B assay relative to control; assay type: functional; conditions: U-251, 48 h, read-out: Activity
SR = assay: Growth inhibition of human SR cells assessed as cell growth at 10 uM incubated for 48 hrs by sulforhodamine B assay relative to control; assay type: functional; conditions: read-out: Activity
OVCAR-4 [10] = assay: Growth inhibition of human OVCAR4 cells incubated for 48 hrs by sulforhodamine B assay; assay type: functional, cell-based; conditions: OVCAR-4, 48 h
M14 [11] = assay: Growth inhibition of human M14 cells assessed as cell growth at 0.01 uM incubated for 48 hrs by sulforhodamine B assay relative to control; assay type: functional; conditions: M14, 48 h, read-out: Activity
HCC 2998 [12] = assay: Growth inhibition of human HCC2998 cells incubated for 48 hrs by sulforhodamine B assay; assay type: functional, cell-based; conditions: HCC 2998, 48 h
[13] = read-out: LC50 (the source's name)
[14] = read-out: pLC50 (the source's name) (converted)

With `COc1cc(Cl)cc(-c2nn(-c3cccc(NC(=O)Nc4cccc(C(F)(F)F)c4)c3)cc2-c2ccncc2)c1` as the compound, how does the growth at 10 µM (HL-60(TB)) read?
The growth at 10 µM was -7.89%.

What about the GI50 (ACHN [1]; read-out: GI50) of the same compound?
Its GI50 is 1.72 µM.

And the CC50 (ACHN [1]; [13])?
Its CC50 is greater than 100 µM.

And the TGI (ACHN [1]; read-out: TGI)?
Its TGI is 15.2 µM.

What about the GI50 (ACHN [1]; read-out: pGI50 (converted)) of the same compound?
The GI50 was 1.7 µM.

What about the CC50 (ACHN [1]; [14]) of the same compound?
The CC50 was greater than 100 µM.

What about the TGI (ACHN [1]; read-out: pTGI (converted)) of the same compound?
The TGI was 16.2 µM.

What about the growth at 10 µM (SF-295) of the same compound?
Its growth at 10 µM is -7.87%.

What about the growth at 10 µM (SK-OV-3) of the same compound?
Its growth at 10 µM is 14.2%.

And the growth at 10 µM (Hs-578T)?
The growth at 10 µM was 23.1%.

What about the growth at 10 µM (NCI/ADR-RES) of the same compound?
The growth at 10 µM was 3.58%.

What about the growth at 10 µM (SF-268) of the same compound?
Its growth at 10 µM is 27.9%.

And the growth at 100 µM (MDA-MB-468 [2])?
Its growth at 100 µM is -34%.

What about the growth at 10 µM (HCT-15) of the same compound?
The growth at 10 µM was 7.83%.

And the growth at 10 µM (MDA-MB-435)?
The growth at 10 µM was -20.9%.

And the growth at 10 µM (LOX IMVI)?
The growth at 10 µM was 4.64%.

What about the growth at 100 µM (ACHN [3]) of the same compound?
The growth at 100 µM was -9%.

And the growth at 10 µM (MDA-MB-468 [4])?
Its growth at 10 µM is 6.89%.

What about the growth at 10 µM (OVCAR-8) of the same compound?
The growth at 10 µM was -12.3%.

What about the growth at 10 µM (M14 [5]) of the same compound?
Its growth at 10 µM is 9.99%.

And the growth at 10 µM (UACC-257)?
The growth at 10 µM was -11.7%.

What about the growth at 10 µM (K562) of the same compound?
Its growth at 10 µM is 7.61%.

And the growth at 10 µM (HOP-62)?
The growth at 10 µM was 15.5%.

What about the IC50 (U-251 [6]) of the same compound?
Its IC50 is 0.88 µM.

What about the GI50 (U-251 [6]; read-out: GI50) of the same compound?
Its GI50 is 0.679 µM.

What about the CC50 (U-251 [6]; [13]) of the same compound?
The CC50 was 89.4 µM.

And the TGI (U-251 [6]; read-out: TGI)?
The TGI was 29.1 µM.

And the GI50 (U-251 [6]; read-out: pGI50 (converted))?
The GI50 was 0.891 µM.

What about the CC50 (U-251 [6]; [14]) of the same compound?
The CC50 was 8.91 µM.

And the TGI (U-251 [6]; read-out: pTGI (converted))?
Its TGI is 2.88 µM.

What about the growth at 10 µM (RPMI-8226) of the same compound?
The growth at 10 µM was -14.2%.

And the growth at 0.1 µM (UACC-62)?
Its growth at 0.1 µM is 96%.

And the growth at 10 µM (HCC 2998 [7])?
The growth at 10 µM was 19%.

What about the growth at 10 µM (SNB-19) of the same compound?
The growth at 10 µM was 16.1%.

What about the growth at 10 µM (Malme-3M) of the same compound?
Its growth at 10 µM is -16.6%.

What about the growth at 10 µM (OVCAR-4 [8]) of the same compound?
Its growth at 10 µM is 3.28%.

And the growth at 0.01 µM (UO-31)?
The growth at 0.01 µM was 91%.

And the growth at 1 µM (U-251 [9])?
The growth at 1 µM was 47%.

What about the growth at 10 µM (SR) of the same compound?
The growth at 10 µM was -13.5%.

And the GI50 (OVCAR-4 [10]; read-out: GI50)?
Its GI50 is 2.54 µM.

And the CC50 (OVCAR-4 [10]; [13])?
The CC50 was greater than 100 µM.

And the TGI (OVCAR-4 [10]; read-out: TGI)?
The TGI was 38.8 µM.

What about the GI50 (OVCAR-4 [10]; read-out: pGI50 (converted)) of the same compound?
Its GI50 is 2.51 µM.

And the CC50 (OVCAR-4 [10]; [14])?
Its CC50 is greater than 100 µM.

And the TGI (OVCAR-4 [10]; read-out: pTGI (converted))?
Its TGI is 38.9 µM.

What about the growth at 0.01 µM (M14 [11]) of the same compound?
The growth at 0.01 µM was 98%.

And the GI50 (HCC 2998 [12]; read-out: GI50)?
The GI50 was 3.47 µM.

And the CC50 (HCC 2998 [12]; [13])?
Its CC50 is 90.1 µM.

What about the TGI (HCC 2998 [12]; read-out: TGI) of the same compound?
Its TGI is 14 µM.

And the GI50 (HCC 2998 [12]; read-out: pGI50 (converted))?
The GI50 was 3.47 µM.

And the CC50 (HCC 2998 [12]; [14])?
Its CC50 is 89.1 µM.

What about the TGI (HCC 2998 [12]; read-out: pTGI (converted)) of the same compound?
The TGI was 14.1 µM.
